# Test results reported in patent US20060069132A1, “Azolecarboxamide herbicides” (priority 2004, published 2006).
# Tests used:
# cocklebur = experiment: Test B pre-/postemergence herbicide test; assay type: in vivo, Xanthium strumarium
# In short: (§1)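 Herbicidal effect was judged by eye on a 0–100 scale after plants stood 13 to 15 days in the greenhouse following pre- or postemergence treatment with surfactant-containing formulations.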
# morningglory = experiment: Test B pre-/postemergence herbicide test; assay type: in vivo, Ipomoea coccinea; details: 125 g ai/ha
# In short: as §1
# rice = experiment: Test B flooded paddy test; assay type: in vivo, Oryza sativa; details: Oryza sativa, 336 h, 1000 g ai/ha, scale 0 to 100 (0 no effect, 100 complete control), read-out: Rice plant response rating
# In short: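 Greenhouse test; postemergence application to plants at 1–4 leaves (2–18 cm); paddy species at 2 leaves; evaluated visually vs controls at 13–15 days; scale 0–100 (100 = complete control).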
# barnyardgrass [1] = experiment: Test B flooded paddy test; assay type: in vivo, Echinochloa crus-galli; details: Echinochloa crus-galli, 336 h, 1000 g ai/ha, scale 0 to 100 (0 no effect, 100 complete control), read-out: Barnyardgrass plant response rating
# In short: (§2)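 Treated at 2-leaf (paddy) or 1–4-leaf, 2–18 cm (postemergence); greenhouse 13–15 d; visual score vs control, 0 none to 100 complete control; dash = not tested.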
# pigweed = experiment: Test B pre-/postemergence herbicide test; assay type: in vivo, Amaranthus retroflexus; details: 125 g ai/ha
# In short: (§3)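 Greenhouse pot assay with simultaneous preemergence (treated seed) and postemergence (2–18 cm seedlings) applications of surfactant-containing, non-phytotoxic solvent formulations. Response scored visually 13–15 days later on a 0–100 scale, 100 meaning complete control.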
# corn = experiment: Test B pre-/postemergence herbicide test; assay type: in vivo, Zea mays
# In short: as §3
# Surinam grass = experiment: Test B pre-/postemergence herbicide test; assay type: in vivo, Urochloa decumbens; details: 125 g ai/ha
# In short: as §3
# ducksalad = experiment: Test B flooded paddy test; assay type: in vivo, Heteranthera limosa; details: Heteranthera limosa, 336 h, 1000 g ai/ha, scale 0 to 100 (0 no effect, 100 complete control), read-out: Ducksalad plant response rating
# In short: as §2
# large crabgrass = experiment: Test B pre-/postemergence herbicide test; assay type: in vivo, Digitaria sanguinalis
# In short: as §3
# giant foxtail = experiment: Test B pre-/postemergence herbicide test; assay type: in vivo, Setaria faberi
# In short: as §3
# lambsquarters = experiment: Test B pre-/postemergence herbicide test; assay type: in vivo, Chenopodium album; details: 125 g ai/ha
# In short: as §3
# barnyardgrass [2] = experiment: Test B pre-/postemergence herbicide test; assay type: in vivo, Echinochloa crus-galli
# In short: as §1
# blackgrass = experiment: Test B postemergence herbicide test; assay type: in vivo, Alopecurus myosuroides; details: Alopecurus myosuroides, post-emergence, 336 h, read-out: Blackgrass plant response rating
# In short: as §2
# wheat = experiment: Test B postemergence herbicide test; assay type: in vivo, Triticum aestivum; details: Triticum aestivum, post-emergence, 336 h, 125 g ai/ha; visual rating, scale 0 (no effect) to 100 (complete control); read-out: Wheat plant response rating
# In short: (§4)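 Plants grow to 1- to 4-leaf stage (2–18 cm) for postemergence spraying, or to 2-leaf stage for the paddy test. Formulated compound is applied. Greenhouse holding lasts 13–15 days. Response is scored visually relative to controls, 0 no effect to 100 complete control; a dash means no result.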
# wild oat = experiment: Test B postemergence herbicide test; assay type: in vivo, Avena fatua; details: Avena fatua, post-emergence, 336 h; 125 g ai/ha; visual rating, scale 0 (no effect) to 100 (complete control); read-out: Oat, Wild plant response rating
# In short: as §4
# velvetleaf = experiment: Test B pre-/postemergence herbicide test; assay type: in vivo, Abutilon theophrasti; details: 125 g ai/ha
# In short: as §3
# [3] = system: small flower umbrella sedge; experiment: Test B flooded paddy test; assay type: in vivo, Cyperus difformis; details: Cyperus difformis, 336 h, 1000 g ai/ha, scale 0 to 100 (0 no effect, 100 complete control), read-out: Sedge, Umbrella plant response rating
# In short: as §2
# [4] = 125 g ai/ha, 0 is no effect, 100 is complete control, preemergence
# [5] = 0 is no effect, 100 is complete control, preemergence
compound,measurement,setting,value
"CCNC(=O)c1cccc(NC(=O)c2nn(C(C)(C)C)nc2CC)c1 [Compound 365, 2-(1,1-dimethylethyl)-5-ethyl-N-[3-[(ethylamino)carbonyl]phenyl]-2H-1,2,3-triazole-4-carboxamide]","Plant response rating (0 to 100 scale), Cocklebur",cocklebur; [4],10
same,pest or weed control at 125 g/ha,"cocklebur; Xanthium strumarium, post-emergence, 125 g ai/ha, visual rating, scale 0 (no effect) to 100 (complete control), read-out: Cocklebur plant response rating",20%
same,pest or weed control at 500 g/ha,"cocklebur; Xanthium strumarium, post-emergence, postemergence, 500 g ai/ha, scale 0 to 100, 0 is no effect, 100 is complete control, read-out: Cocklebur plant response rating",60%
same,"Plant response rating (0 to 100 scale), Morningglory",morningglory; [5],50
same,pest or weed control at 125 g/ha,"morningglory; Ipomoea, post-emergence, 336 h, visual rating, scale 0 (no effect) to 100 (complete control), read-out: Morningglory plant response rating",80%
same,plant injury at 1000 g/ha,rice,90%
same,pest or weed control at 1000 g/ha,barnyardgrass [1],90%
same,"Plant response rating (0 to 100 scale), Pigweed",pigweed; [5],100
same,pest or weed control at 125 g/ha,"pigweed; Amaranthus retroflexus, post-emergence, 336 h, visual rating, scale 0 (no effect) to 100 (complete control), read-out: Pigweed plant response rating",40%
same,"Plant response rating (0 to 100 scale), Corn",corn; [4],90
same,plant injury at 125 g/ha,"corn; Zea mays, post-emergence, 125 g ai/ha, visual rating, scale 0 (no effect) to 100 (complete control), read-out: Corn plant response rating",0%
same,plant injury at 500 g/ha,"corn; Zea mays, post-emergence, postemergence, 500 g ai/ha, scale 0 to 100, 0 is no effect, 100 is complete control, read-out: Corn plant response rating",20%
same,"Plant response rating (0 to 100 scale), Surinam Grass",Surinam grass; [5],70
same,pest or weed control at 125 g/ha,"Surinam grass; Urochloa decumbens, post-emergence, visual rating, scale 0 (no effect) to 100 (complete control), read-out: Surinam Grass plant response rating",10%
same,pest or weed control at 1000 g/ha,ducksalad,90%
same,"Plant response rating (0 to 100 scale), Crabgrass, Large",large crabgrass; [4],100
same,pest or weed control at 125 g/ha,"large crabgrass; Digitaria sanguinalis, post-emergence, 125 g ai/ha, visual rating, scale 0 (no effect) to 100 (complete control), read-out: Crabgrass, Large plant response rating",0%
same,pest or weed control at 500 g/ha,"large crabgrass; Digitaria sanguinalis, post-emergence, postemergence, 500 g ai/ha, scale 0 to 100, 0 is no effect, 100 is complete control, read-out: Crabgrass, Large plant response rating",80%
same,"Plant response rating (0 to 100 scale), Foxtail, Giant",giant foxtail; [4],100
same,pest or weed control at 125 g/ha,"giant foxtail; Setaria faberi, post-emergence, 336 h, 125 g ai/ha, visual rating, scale 0 (no effect) to 100 (complete control), read-out: Foxtail, Giant plant response rating",20%
same,pest or weed control at 500 g/ha,"giant foxtail; Setaria faberi, post-emergence, 336 h, postemergence, 500 g ai/ha, scale 0 to 100, 0 is no effect, 100 is complete control, read-out: Foxtail, Giant plant response rating",70%
same,"Plant response rating (0 to 100 scale), Lambsquarters",lambsquarters; [5],100
same,pest or weed control at 125 g/ha,"lambsquarters; Chenopodium album, post-emergence, 336 h, visual rating, scale 0 (no effect) to 100 (complete control), read-out: Lambsquarters plant response rating",90%
same,"Plant response rating (0 to 100 scale), Barnyardgrass",barnyardgrass [2]; [4],90
same,pest or weed control at 125 g/ha,"barnyardgrass [2]; Echinochloa crus-galli, post-emergence, 125 g ai/ha, visual rating, scale 0 (no effect) to 100 (complete control), read-out: Barnyardgrass plant response rating",0%
same,pest or weed control at 500 g/ha,"barnyardgrass [2]; Echinochloa crus-galli, post-emergence, postemergence, 500 g ai/ha, scale 0 to 100, 0 is no effect, 100 is complete control, read-out: Barnyardgrass plant response rating",10%
same,pest or weed control at 125 g/ha,"blackgrass; 125 g ai/ha, visual rating, scale 0 (no effect) to 100 (complete control)",40%
same,pest or weed control at 500 g/ha,"blackgrass; postemergence, 500 g ai/ha, scale 0 to 100, 0 is no effect, 100 is complete control",90%
same,plant injury at 125 g/ha,wheat,20%
same,pest or weed control at 125 g/ha,wild oat,30%
same,"Plant response rating (0 to 100 scale), Velvetleaf",velvetleaf; [5],50
same,pest or weed control at 125 g/ha,"velvetleaf; Abutilon theophrasti, post-emergence, 336 h, visual rating, scale 0 (no effect) to 100 (complete control), read-out: Velvetleaf plant response rating",10%
same,pest or weed control at 1000 g/ha,[3],90%
